Source: the NIST ThermoML archive (doi:10.1021/acs.jced.8b00349)

Test: mn = molality of the nth substance listed, in mol/kg
Settings: 101 kPa, Liquid; for viscosity: Falling or rolling sphere viscometry; for speed of sound: Frequency=3 MHz, Single path-length method; for mass density: Vibrating tube method

C[n+]1ccn(CCCCCn2cc[n+](C)c2)c1.[Br-].[Br-] + O
Settings	mass density [kg/m3]	speed of sound [m/s]	viscosity [mPa·s]
293.15 K, m1 = 0.03341	1002.35	1488.3	1.021
293.15 K, m1 = 0.04614	1003.89	1490.3	1.027
293.15 K, m1 = 0.05646	1005.11	1491.6	1.032
293.15 K, m1 = 0.06717	1006.38	1493.3	1.037
293.15 K, m1 = 0.0777	1007.58	1494.8	1.042
293.15 K, m1 = 0.08857	1008.85	1496.4	1.047
293.15 K, m1 = 0.09671	1009.75	1497.3	1.05
298.15 K, m1 = 0.03341	1001.16	1501.9	0.908
298.15 K, m1 = 0.04614	1002.7	1503.7	0.914
298.15 K, m1 = 0.05646	1003.91	1505	0.918
298.15 K, m1 = 0.06717	1005.17	1506.5	0.924
298.15 K, m1 = 0.0777	1006.38	1507.8	0.928
298.15 K, m1 = 0.08857	1007.62	1509.2	0.933
298.15 K, m1 = 0.09671	1008.51	1510.2	0.936
303.15 K, m1 = 0.03341	999.742	1514.4	0.815
303.15 K, m1 = 0.04614	1001.27	1515.9	0.821
303.15 K, m1 = 0.05646	1002.47	1517.1	0.825
303.15 K, m1 = 0.06717	1003.73	1518.5	0.83
303.15 K, m1 = 0.0777	1004.93	1519.8	0.835
303.15 K, m1 = 0.08857	1006.16	1520.9	0.839
303.15 K, m1 = 0.09671	1007.05	1521.8	0.843
308.15 K, m1 = 0.03341	998.108	1523.7	0.737
308.15 K, m1 = 0.04614	999.627	1525.1	0.741
308.15 K, m1 = 0.05646	1000.83	1526.4	0.747
308.15 K, m1 = 0.06717	1002.07	1527.4	0.752
308.15 K, m1 = 0.0777	1003.27	1528.7	0.757
308.15 K, m1 = 0.08857	1004.5	1529.9	0.762
308.15 K, m1 = 0.09671	1005.38	1530.7	0.766
313.15 K, m1 = 0.03341	996.275	1533.2	0.67
313.15 K, m1 = 0.04614	997.783	1534.3	0.676
313.15 K, m1 = 0.05646	998.981	1535.4	0.681
313.15 K, m1 = 0.06717	1000.22	1536.5	0.685
313.15 K, m1 = 0.0777	1001.41	1537.5	0.689
313.15 K, m1 = 0.08857	1002.64	1538.6	0.694
313.15 K, m1 = 0.09671	1003.53	1539.4	0.697

C[n+]1ccn(CCCCn2cc[n+](C)c2)c1.[Br-].[Br-] + O
Settings	mass density [kg/m3]	speed of sound [m/s]	viscosity [mPa·s]
293.15 K, m1 = 0.04944	1004.66	1489.8	1.026
293.15 K, m1 = 0.06711	1006.89	1492	1.034
293.15 K, m1 = 0.07912	1008.4	1493.5	1.039
293.15 K, m1 = 0.0927	1010.06	1495.1	1.044
293.15 K, m1 = 0.1021	1011.22	1496.2	1.049
298.15 K, m1 = 0.04944	1003.45	1503.2	0.914
298.15 K, m1 = 0.06711	1005.68	1505.2	0.921
298.15 K, m1 = 0.07912	1007.18	1506.6	0.926
298.15 K, m1 = 0.0927	1008.82	1508	0.931
298.15 K, m1 = 0.1021	1009.97	1509	0.935
303.15 K, m1 = 0.04944	1002.01	1515.4	0.821
303.15 K, m1 = 0.06711	1004.22	1517.1	0.828
303.15 K, m1 = 0.07912	1005.71	1518.5	0.833
303.15 K, m1 = 0.0927	1007.35	1519.8	0.839
303.15 K, m1 = 0.1021	1008.49	1520.7	0.842
308.15 K, m1 = 0.04944	1000.35	1524.7	0.744
308.15 K, m1 = 0.06711	1002.54	1526.3	0.751
308.15 K, m1 = 0.07912	1004.03	1527.3	0.756
308.15 K, m1 = 0.0927	1005.67	1528.9	0.762
308.15 K, m1 = 0.1021	1006.8	1529.5	0.765
313.15 K, m1 = 0.04944	998.497	1534.1	0.677
313.15 K, m1 = 0.06711	1000.68	1535.5	0.683
313.15 K, m1 = 0.07912	1002.15	1536.5	0.688
313.15 K, m1 = 0.0927	1003.79	1537.8	0.692
313.15 K, m1 = 0.1021	1004.91	1538.5	0.696

C[n+]1ccn(CCCn2cc[n+](C)c2)c1.[Br-].[Br-] [1,3-bis[3-methylimidazolium-1-yl]propane dibromide] + O
Settings	mass density [kg/m3]	speed of sound [m/s]	viscosity [mPa·s]
293.15 K, m1 = 0.03423	1002.81	1486.3	1.019
293.15 K, m1 = 0.04998	1004.86	1488.1	1.025
293.15 K, m1 = 0.06131	1006.3	1489.3	1.029
293.15 K, m1 = 0.07119	1007.55	1490.3	1.033
293.15 K, m1 = 0.08049	1008.72	1491.3	1.037
293.15 K, m1 = 0.089	1009.76	1492.2	1.04
293.15 K, m1 = 0.09492	1010.48	1492.8	1.042
298.15 K, m1 = 0.03423	1001.61	1499.9	0.906
298.15 K, m1 = 0.04998	1003.65	1501.6	0.912
298.15 K, m1 = 0.06131	1005.1	1502.6	0.917
298.15 K, m1 = 0.07119	1006.34	1503.5	0.921
298.15 K, m1 = 0.08049	1007.49	1504.6	0.924
298.15 K, m1 = 0.089	1008.53	1505.4	0.927
298.15 K, m1 = 0.09492	1009.24	1505.8	0.929
303.15 K, m1 = 0.03423	1000.19	1512.3	0.814
303.15 K, m1 = 0.04998	1002.22	1513.9	0.82
303.15 K, m1 = 0.06131	1003.66	1514.9	0.824
303.15 K, m1 = 0.07119	1004.89	1515.8	0.828
303.15 K, m1 = 0.08049	1006.04	1516.6	0.831
303.15 K, m1 = 0.089	1007.06	1517.5	0.835
303.15 K, m1 = 0.09492	1007.78	1518	0.838
308.15 K, m1 = 0.03423	998.558	1521.8	0.737
308.15 K, m1 = 0.04998	1000.57	1523.2	0.743
308.15 K, m1 = 0.06131	1002.01	1524	0.747
308.15 K, m1 = 0.07119	1003.23	1524.8	0.751
308.15 K, m1 = 0.08049	1004.38	1525.7	0.755
308.15 K, m1 = 0.089	1005.39	1526.4	0.758
308.15 K, m1 = 0.09492	1006.11	1526.8	0.76
313.15 K, m1 = 0.03423	996.725	1531.6	0.675
313.15 K, m1 = 0.04998	998.73	1532.7	0.679
313.15 K, m1 = 0.06131	1000.15	1533.5	0.683
313.15 K, m1 = 0.07119	1001.38	1534.1	0.689
313.15 K, m1 = 0.08049	1002.51	1534.8	0.686
313.15 K, m1 = 0.089	1003.53	1535.5	0.689
313.15 K, m1 = 0.09492	1004.24	1535.8	0.691
